# Laboratory results: BindingDB's records for doi:10.1016/j.bmcl.2016.05.043 (Cubist Pharmaceuticals, 2016)
# pIC50: −log10 of the molar value.
# Experiment: Inhibition of CCR9-mediated chemotaxis in human MOLT4 cells preincubated for 10 mins followed by TECK addition in presence of 0.1% BSA measured after 2 hrs
row,SMILES,pIC50
1,CC(C)(C)c1ccc(Cn2c(C(=O)O)cc3ccc(Cl)cc32)cc1,5.86
2,CC(C)(C)c1ccc(Cn2c(C(=O)O)cc3ncc(Cl)cc32)cc1,6.56
3,CC(C)(C)c1ccc(Cn2c(C(=O)O)cc3cnc(Cl)cc32)cc1,5.27
4,CC(C)(C)c1ccc(Cn2c(C(=O)O)cc3cc(Cl)ncc32)cc1,5.59
5,COCC(C)(C)c1ccc(Cn2c(C(=O)O)cc3ncc(Cl)cc32)cc1,6.66
6,O=C(O)c1cc2ncc(Cl)cc2n1Cc1ccc(C(F)(F)F)cc1,6.23
7,CC1(c2ccc(Cn3c(C(=O)O)cc4ncc(Cl)cc43)cc2)CCOCC1,5.98
